Assay results reported in patent publication US20240002326A1, “COMPOUNDS AND USE THEREOF IN METHODS OF TREATMENT” (The University of Queensland, priority 2016, published 2024).
Entries after “also recorded” stand apart in the source; their conditions may differ. *1 amine or outer side, *2 acyl side, *3 side chain or, on linkers, in order; H or OH if unused. Where a SMILES comes first, the peptide text is derived from it. Bridges are numbered along the chain shown (N, C = ends). Roman numbers before positions name the chains, in order. [ ]: non-standard residue; d: D form. Actinocin(9to1) = Cc1c2oc3c(C)ccc(C(=O)[*:1])c3nc-2c(C(=O)[*:2])c(N)c1=O; NMeV = CN[C@H](C(=O)O)C(C)C; Sar = CNCC(=O)O

Legend:
scrambled DNA = assay: Direct DNA-binding assay (SPR), scrambled DNA; conditions: biotinylated double-strand DNA on streptavidin chip
Method: (§1) Compounds were tested at a 1% v/v DMSO in HBS-EP buffer (10 mM HEPES, 150 mM NaCl, 3 mM EDTA, 0.005% v/v polysorbate 20, pH 7.4). The same buffer supplemented with 1% v/v DMSO was used as a mobile phase. DNA minor groove binder DAPI (4′,6-diamidino-2-phenylindole), DNA intercalator and minor groove binder actinomycin D, and DNA intercalator ethidium bromide were used as positive controls. Biotinylated (one tag per probe) double strand DNA probes were prepared using a standard annealing routine (5 min at 100° C., room temperature overnight and stored at −20° C.) of single strand anti-parallel DNA Probes purchased from Geneworks and were immobilized on CM5-SA streptavidin chips as per manufacturer's recommendations. […] All sample and control cycles were performed in triplicate. DMSO calibration was performed as per manufacturer's recommendations. After each injection, an extra flow system wash was performed with 50% v/v DMSO to avoid carryover. Experiments were run on a Biacore T200 (GE Healthcare, USA), with one flow cell kept as a reference.
(§2) From a molecular viewpoint, an inhibitor of SOX18-DNA binding could act either by interacting directly with the DNA, or the protein, or at the interface between protein and DNA. Binding of small molecules directly to the DNA, even though reported for other TFs (Leung et al., 2013), has the potential for unspecific DNA binding, leading to possible genotoxicity, mutagenicity, or carcinogenicity. For this reason, we developed a direct binding assays to determine whether the active compounds interact directly with DNA or protein. A surface plasmon resonance-based method was developed to analyse the binding of small molecules to biotinylated double stranded DNA immobilized on the surface of a streptavidin chip. The method measures the rate of binding (kon), dissociation (koff) and binding constant (KD), and was used to measure the binding to two different DNA sequences: SOX binding site consensus DNA, and scrambled DNA. Intercalating agents ethidium bromide and Actinomycin D, and the minor groove-binding agent 4′,6-diamino-2-phenylindole (DAPI) were used as positive controls for unselective DNA binding.

[1] = tested on: SOX binding site consensus DNA; assay: Direct DNA-binding assay (SPR), consensus DNA; conditions: biotinylated double-strand DNA on streptavidin chip
Method: as §1, §2

HepG2 = assay: Cytotoxicity assay (Alamar blue), HepG2; assay type: cell-based; conditions: HepG2, 24 h
SOX18[109] HMG fragment = SOX18[109] HMG fragment (Mus musculus (Mouse), UniProt P43680); assay: FP DNA-binding competition assay, SOX18[109] HMG fragment; conditions: for FP bound fraction (%) 50 μM / FP bound fraction (%) 200 μM: SOX18/DNA binding
Method: Mouse SOX HMG fragments. The HMG domains of mouse SOX2 (Group B), SOX11 (Group C), SOX6 (Group D), SOX9 (Group E), SOX18 (Group F) and SOX15 (Group G) were BP cloned from cDNA templates (IMAGE cDNA clone IDs: Sox18: 3967084; Sox9: 5354229; Sox4: 6822618) into a pDONRTM221 pENTRY vector, sequenced and recombined into a pETG20A or a pHisMBP expression plasmid using Gateway®LR Technology (Ng et al., 2012). Constructs were transformed into Escherichia coli BL21(DE3) cells (Luria-Bertani, 100 μg/ml Ampicillin).
The DNA-binding competition assay was performed in black 384-well plates, with mouse full length SOX18, or SOX-HMG fragments. All experiments were performed using a fluorescently-labelled Prox1-DNA element. Controls consisted of free labelled DNA (low FP milli-Polarization index, mP), labelled DNA in presence of protein (negative control, high mP), and labelled DNA and protein in presence of competing excess of unlabelled DNA (positive control, low mP)
The DNA-binding competition assay was performed in 25 uL, in black 384-well plates, using either 30 mM HEPES (N-2-Hydroxyethylpiperazine-N′-2-Ethanesulfonic Acid) (pH 7.5, with 100 mM KCl, 40 mM NaCl, 10 mM NH4OAc, […], 2 mM MgCl2, 0.5 mM EDTA, 0.01% NP-40) for mouse full length SOX18, or Tris-NaCl (10 mM Tris pH 8.0 and 100 mM NaCl) for SOX-HMG fragments. All experiments were performed using a 40 bp double-stranded Prox1-DNA element with 5′ fluorescein amidite (FAM) label (Sigma Proligo or InVitrogen). Optimum binding levels were obtained at 200 nM of mouse full length SOX18 and 60 nM of SOX-HMG fragment, in presence of 5 nM labelled DNA. Controls consisted of free labelled DNA (low FP milli-Polarization index, mP), labelled DNA in presence of protein (negative control, high mP), and labelled DNA and protein in presence of 400 time competing excess of unlabelled DNA (positive control, low mP). Depending on compound, final DMSO concentrations ranged from 2 to 3.33% v/v. After mixing protein, DNA probe and compound, plates were sealed and briskly agitated in the dark for 5 minutes at room temperature, 10 minutes at 37° C., and 30 minutes at room temperature, before reading fluorescence polarization on a Tecan M1000Pro (λexc=485 nm, λem=525 nm). All experiments were performed in triplicates.
In order to pinpoint the possible binding site of the small molecules, the FP assays were repeated with a shorter, DNA-binding centred protein fragment. The DNA binding domain of SOX TFs consists of the […] amino acid long High Mobility Group (HMG) box. The 109 amino-acid long SOX18 fragment (SOX18[109]) corresponds to residues 69-177 (numbering by mouse SOX18), which includes the HMG box (residues 78-149) and N- and C-terminal flanking sequences of 9 and 28 amino-acids, respectively.

SOX18-RBPJ interaction = SOX18-RBPJ interaction (Homo sapiens (Human), UniProt P35713); assay: ALPHAScreen SOX18-RBPJ protein-protein interaction; assay type: binding
Text: Proteins were genetically encoded with enhanced GFP (GFP), mCherry and cMyc (myc) tags, and cloned into cell free expression Gateway destination vectors: N-terminal GFP tagged (pCellFree_G03), N-terminal Cherry-cMyc (pCellFree_G07) and C-terminal Cherry-cMyc tagged (pCellFree_G08) (Gagoski et al., 2015). Human RBPJ (BC020780) and MEF2C (BC026341) Open Reading Frames (ORFs) were sourced from the Human ORFeome collection, version 1.1 and 5.1, and the Human Orfeome collaboration OCAA collection (Open Biosystems), as previously described (Sierecki et al., 2013) and cloned at the ARVEC facility, UQ Diamantina Institute. The entry clones pDONOR223 or pENTR201 vectors were exchanged with the ccdB gene in the expression plasmid by LR recombination (Life Technologies, Australia). The full-length human SOX18 gene was synthesized and the transfer to vectors was realized using Gateway PCR cloning. Translation competent Leishmania tarentolae extract (LTE) was prepared as previously described (Kovtun et al., 2011, Mureev et al., 2009). Protein pairs were co-expressed by adding 30 nM of GFP template plasmid and 60 nM of Cherry template plasmid to LTE and incubating for 3 hours at 27° C.
ALPHAScreen was performed as previously described (Sierecki et al., 2014, Sierecki et al., 2013). […] Percentage of interaction was calculated as: (I_cpd/I_DMSO)×100 from 3 independent experiments.
ALPHAScreen was performed as previously described (Sierecki et al., 2014, Sierecki et al., 2013), using the cMyc detection kit and Proxiplate-384 Plus plates (PerkinElmer). The LTE lysate co-expressing the proteins of interest was diluted in buffer A (25 mM HEPES, 50 mM NaCl). For the assay, 12.5 μL (0.4 μg) of Anti-cMyc coated Acceptor Beads in buffer B (25 mM HEPES, 50 mM NaCl, 0.001% NP40, 0.001% casein) were aliquoted into each well. This was followed by the addition of 2 μL of diluted sample, at different concentration, and 2 μL of biotin labeled GFP-Nanotrap in buffer A. The plates were incubated for 45 min at room temperature, then adding 2 μL (0.4 μg) of streptavidin-coated Donor Beads diluted in buffer A, and incubation in the dark for 45 min at room temperature. The ALPHAScreen signal was measured on an Envision Plate Reader (PerkinElmer), using manufacturer's recommended settings (λexc=680/30 nm for 0.18 s, λem=570/100 nm after 37 ms). The resulting bell-shaped curve is an indication of a positive interaction, while a flat line reflects a lack of interaction between the proteins. The measurement of each protein pair was repeated in triplicate.
I is the highest signal level (top of the hook effect curve) and Ineg is the lowest (background) signal level. The signals were normalized to the Iref signal obtained for the strongest interaction. […] Percentage of interaction was calculated as: […]
The ALPHA-Screen Assay was performed as previously described (Sierecki et al. 2014), using the cMyc detection kit and Proxiplate-384 Plus plates (PerkinElmer). A serial dilution of each sample was measured. The LTE lysate co-expressing the proteins of interest was diluted in buffer A (25 mM HEPES, 50 mM NaCl). For the assay, 12.5 μL (0.4 μg) of Anti-cMyc coated Acceptor Beads in buffer B (25 mM HEPES, 50 mM NaCl, 0.001% NP40, casein) were aliquoted into each well. This was followed by the addition of 2 μL of diluted sample and 2 μL of biotin labeled GFP-Nanotrap in buffer A. The plate was incubated for 45 min at RT. Afterward, 2 μL (0.4 μg) of Streptavidin coated Donor Beads diluted in buffer A, were added, followed by incubation in the dark for 45 min at RT. The ALPHA-Screen signal was obtained on an Envision Multilabel Plate Reader (PerkinElmer), using the manufacturer's recommended settings (excitation: 680/30 nm for 0.18 s, emission: 570/100 nm after 37 ms). The resulting bell-shaped curve is an indication of a positive interaction, while a flat line reflects a lack of interaction between the proteins. […]

HEK293 = assay: Cytotoxicity assay (Alamar blue), HEK293; assay type: cell-based; conditions: HEK293, 24 h
Method: Cell toxicity was determined using Alamar blue, as previously described (McMillian et al., 2002). COS-7 cells were seeded as 7000 cells per well in black wall clear bottom 96-well plates in DMEM medium (Life Technologies Australia) with 10% FBS. HepG2 and HEK293 cell lines, from ATCC, were seeded as 5000 cells per well in black wall clear bottom 384-well cell culture plates in DMEM with 1% FBS. Cells were cultured for 24 h at 37° C., 5% CO2. A serial dilution of compounds was added, with a final DMSO concentration adjusted to 0.5% v/v. Cells were incubated for another 24 h. 1 Triton X-100 was used as negative control, and 0.5% DMSO as positive control. 5 μM Alamar blue was added to each well and fluorescence was measured (λexc=560 nm, λem=590 nm) after 2 h incubation at 37° C. Data were analysed using Prism software.

SOX18[109] HMG fragment, sequence (P43680 69-177): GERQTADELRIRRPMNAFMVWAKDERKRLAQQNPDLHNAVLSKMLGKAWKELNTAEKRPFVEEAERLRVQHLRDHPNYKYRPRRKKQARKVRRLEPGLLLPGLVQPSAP
SOX18-RBPJ interaction, sequence (P35713 whole entry): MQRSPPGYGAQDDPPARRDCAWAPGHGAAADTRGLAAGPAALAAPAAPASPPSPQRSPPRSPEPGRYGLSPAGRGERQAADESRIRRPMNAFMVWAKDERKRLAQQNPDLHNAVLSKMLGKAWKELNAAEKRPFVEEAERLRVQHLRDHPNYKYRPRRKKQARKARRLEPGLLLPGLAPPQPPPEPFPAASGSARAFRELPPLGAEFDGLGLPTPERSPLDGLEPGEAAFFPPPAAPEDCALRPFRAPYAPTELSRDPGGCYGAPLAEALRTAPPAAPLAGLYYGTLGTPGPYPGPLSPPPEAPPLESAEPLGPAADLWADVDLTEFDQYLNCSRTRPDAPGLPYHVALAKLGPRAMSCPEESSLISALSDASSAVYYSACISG

SMILES | binding to scrambled DNA (SPR) (scrambled DNA) | binding to consensus DNA (SPR) [1] | CC50 (HepG2) [µM] | FP bound fraction (%) 50 μM (SOX18[109] HMG fragment) [%] | FP bound fraction (%) 200 μM (SOX18[109] HMG fragment) [%] | SOX18-DNA binding inhibition (FP, words) (SOX18[109] HMG fragment; SAR library, SOX18[109]) | effect on SOX18-RBPJ interaction (PPI) (SOX18-RBPJ interaction; ALPHAScreen) | CC50 (HEK293) [µM] | SOX18-RBPJ protein-protein binding inhibition at 5 μM (SOX18-RBPJ interaction; 5 μM)
CC[n+]1c(-c2ccccc2)c2cc(N)ccc2c2ccc(N)cc21 [ethidium bromide] | bind to DNA | bind to DNA |  |  |  |  |  |  | 
O=C(O)c1c(O)cccc1C=Cc1ccc2ccccc2c1 (mixture of isomers) [Sm20, (E/Z)-2-hydroxy-6-(2(naphthalen-2-yl)vinyl)benzoic acid] |  |  | 71.3 | 10.3 ± 4.1 | 11.9 ± 8.5 | displayed SOX18-DNA binding inhibiting activity; also recorded: inhibit both DNA and PPI | inhibit both DNA and PPI | 97.1 | 
N=C(N)c1ccc(-c2cc3ccc(C(=N)N)cc3[nH]2)cc1 [DAPI, 4′,6-diamidino-2-phenylindole] | bind to DNA | bind to DNA |  |  |  |  |  |  | 
COc1cccc(C=Cc2ccc3ccccc3c2)c1C(=O)O (mixture of isomers) [Sm19, (E/Z)-2-methoxy-6-(2-(naphthalen-2-yl)vinyl)benzoic acid] |  |  | > 100 | 99.2 ± 6.8 | 107.6 ± 4.5 |  |  | > 100 | highly active
Cc1c2oc3c(C)ccc(C(=O)N[C@@H]4C(=O)N[C@H](C(C)C)C(=O)N5CCC[C@H]5C(=O)N(C)CC(=O)N(C)[C@@H](C(C)C)C(=O)O[C@@H]4C)c3nc-2c(C(=O)N[C@@H]2C(=O)N[C@H](C(C)C)C(=O)N3CCC[C@H]3C(=O)N(C)CC(=O)N(C)[C@@H](C(C)C)C(=O)O[C@@H]2C)c(N)c1=O [actinomycin D] (I: T[dV]P[Sar][NMeV] / II: T[dV]P[Sar][NMeV]; ester I:1-I:C, II:1-II:C; linker I:N-II:N via Actinocin(9to1)) | bind to DNA | bind to DNA |  |  |  |  |  |  | 
